US6790540B2, “Organic electroluminescent element material and organic electroluminescent element” (Nippon Steel Chemical Co., Ltd., priority 2000, dated 2004)

Key:
[1] = Solubility (wt %) of compounds in chloroform and toluene; assay type: physicochemical; parameters: key: ◯: ∘, completely soluble; Δ, a slight amount remaining insoluble; X, a considerable amount remaining insoluble; settings: for Solubility, Chloroform 0.1% soln. / Solubility, Toluene 0.1% soln.: 0.1% soln. (wt %); for Solubility, Chloroform 1% soln. / Solubility, Toluene 1% soln.: 1% soln. (wt %); for Solubility, Chloroform 5% soln. / Solubility, Toluene 5% soln.: 5% soln. (wt %); for Solubility, Chloroform 10% soln. / Solubility, Toluene 10% soln.: 10% soln. (wt %)
Description: The symbols in the table stand for the following: ∘, completely soluble; Δ, a slight amount remaining insoluble; X, a considerable amount remaining insoluble.

[2] = Maximum PL wavelength in chloroform; assay type: physicochemical; settings: in chloroform (Compound B: 0.1 mM, excitation 350 nm)
Method: Next, 5.0 g (0.016 mole) of Compound J, 2.12 g (0.016 mole) of zinc chloride and 4.74 g (0.047 mole) of triethylamine were suspended in 30 ml of ethanol and allowed to react at room temperature. After 3 hours, the separated yellow powder was filtered, washed with ethanol, and purified by column chromatography to give […] (90.0%) of Compound B as yellow crystals. The maximum PL wavelength of Compound B in chloroform was 509 nm (concentration, 0.1 mM; solvent, CHCl3; excitation, 350 nm).

Row | Solubility, Chloroform 0.1% soln. [1] | Solubility, Chloroform 1% soln. [1] | Solubility, Chloroform 5% soln. [1] | Solubility, Chloroform 10% soln. [1] | Solubility, Toluene 0.1% soln. [1] | Solubility, Toluene 1% soln. [1] | Solubility, Toluene 5% soln. [1] | Solubility, Toluene 10% soln. [1] | maximum PL wavelength [2] [nm] | SMILES
1 | ◯ | ◯ | ◯ | ◯ | ◯ | ◯ | Δ | X | – | CCCCCCCCS(=O)(=O)[N-]c1ccccc1-c1nc2ccccc2o1.CCCCCCCCS(=O)(=O)[N-]c1ccccc1-c1nc2ccccc2o1.[Zn+2] [Compound 6a, zinc bis-2-(2-(n-octylsulfonamido)phenyl)benzoxazolate]
2 | – | – | – | – | – | – | – | – | 509 | CCCCCCCCS(=O)(=O)[N-]c1cccc2cccnc12.CCCCCCCCS(=O)(=O)[N-]c1cccc2cccnc12.[Zn+2] [Compound B, zinc bis-8-(n-octylsulfonamido)quinolinate]
3 | Δ | X | X | X | X | X | X | X | 505 | CS(=O)(=O)[N-]c1cccc2cccnc12.CS(=O)(=O)[N-]c1cccc2cccnc12.[Zn+2] [Compound M, Zinc bis-8-(methylsulfonamido)quinolinate]
4 | ◯ | Δ | X | X | X | X | X | X | 510 | CCCCS(=O)(=O)[N-]c1cccc2cccnc12.CCCCS(=O)(=O)[N-]c1cccc2cccnc12.[Zn+2] [Compound N, Zinc bis-8-(n-butylsulfonamido)quinolinate]

Row | SMILES | Solubility, Chloroform 0.1% soln. [1] | Solubility, Chloroform 1% soln. [1] | Solubility, Chloroform 5% soln. [1] | Solubility, Chloroform 10% soln. [1] | Solubility, Toluene 0.1% soln. [1] | Solubility, Toluene 1% soln. [1] | Solubility, Toluene 5% soln. [1] | Solubility, Toluene 10% soln. [1] | maximum PL wavelength [2] [nm]
5 | c1cnc2c([O][Al]([O]c3cccc4cccnc34)[O]c3cccc4cccnc34)cccc2c1 [Alq3, aluminum-8-hydroxyquinoline complex] | Δ | X | X | X | X | X | X | X | –
